Measured values: US5314901A, “1,2,5,6-tetrahydropyridine oxime compounds” (Beecham Group p.l.c., priority 1990, dated 1994)
Structures can show the parent of a compound that is named as a salt.

What was measured:
[1] = target: muscarinic receptors (3H-OXO-M), cerebral cortex; assay: Radio ligand binding: displacement of the muscarinic agonist 3H-Oxotremorine-M (3H-OXO-M) from rat cerebral cortex membranes; parameters: species or system Hooded Lister rats; settings: displacement of 2 nM 3H-OXO-M (muscarinic agonist), 2 mM magnesium chloride, 37° C., 30 min
[2] = target: muscarinic receptors (3H-QNB), cerebral cortex; assay: Radio ligand binding: displacement of the muscarinic antagonist 3H-Quinuclidinyl Benzilate (3H-QNB) from rat cerebral cortex membranes; parameters: species or system Hooded Lister rats; settings: displacement of 0.27 nM 3H-QNB (muscarinic antagonist), 37° C., 30 min

Structure (SMILES)	IC50 [1] [nM]	IC50 [2] [nM]
CON=C(Cl)C1=CCCNC1 [E 9, 1,2,5,6-Tetrahydropyridin-3-yl-N-methoxycarboximidoyl chloride oxalate salt]	180	4700
CON=C(Cl)C1=CCCN(C)C1 [E 1, 1-Methyl-1,2,5,6-tetrahydropyridin-3-yl-N-methoxycarboximidoyl chloride oxalate salt]	259	2800
CON=C(C1=CCCN(C)C1)C(F)(F)F [E 4, E- and Z-1-Methyl-3-(α,α,α-trifluoroacetyl)-1,2,5,6-tetrahydropyridine-O-methyl oxime oxalate salt]	225	16500
CON=C(C#N)C1=CCCN(C)C1 [E 3, α-(Methoxyimino)-α-(1-methyl-1,2,5,6-tetrahydropyridin-3-yl) acetonitrile oxalate salt]	215	9500
CON=C(F)C1=CCCN(C)C1 [E 2, 1-Methyl-1,2,5,6-tetrahydropyridin-3-yl-N-methoxycarboximidoyl fluoride oxalate salt]	39	1500

Now from value to compound:

IC50 [1] [nM]	IC50 [2] [nM]	Structure (SMILES)
620	8500	CO/N=C(\CF)C1=CCCN(C)C1 [E 6, Z-1-Methyl-3-(α-fluoroacetyl)-1,2,5,6-tetrahydropyridine-O-methyl oxime oxalate salt]
41	2850	CON=C(F)C1=CCCNC1 [E 8, 1,2,5,6-Tetrahydropyridin-3-yl-N-methoxycarboximidoyl fluoride oxalate salt]
35	1150	CON=C(C#N)C1=CCCNC1 [E 10, α-(Methoxyimino)-α-(1,2,5,6-tetrahydropyridin-3-yl)acetonitrileoxalate salt]
1250	–	CON=C(C1=CCCN(C)C1)C(F)F [E 5, E- and Z-1-Methyl-3-(α,α-difluoroacetyl)-1,2,5,6-tetrahydropyridine-O-methyl oxime oxalate salt]
1180	–	CCN1CCC=C(C(C#N)=NOC)C1 [E 11, α-(Methoxyimino)-α-(1-ethyl-1,2,5,6-tetrahydropyridin-3-yl) acetonitrile oxalate salt]
420	17000	CO/N=C(\CF)C1=CCCNC1 [E 7, Z-3-(α-Fluoroacetyl)-1,2,5,6-tetrahydropyridine-O-methyl oxime hydrochloride salt]
